Measurements published in patent US20260234159A1, “SMALL MOLECULE TREATMENT OF FATTY LIVER DISEASE AND HCC” (SCANDIEDGE THERAPEUTICS AB, priority 2023, published 2026).

Assays:
[1] = In vivo biosafety study in rats: histopathological and immunohistochemical examination; design: species or system Sprague Dawley male rats; settings: 30 mg/kg, seven days
Procedure: In vivo biosafety studies. Healthy Sprague Dawley male rats (12 weeks old, 250-280 g) were obtained from Atatürk University Experimental Research Center ([…] Turkey) and housed under standard environmental conditions (temperature 20° C.-25° C., humidity 50±20% and 12-hour light/dark diurnal cycle). Food and water were available ad libitum. Rats were randomly separated into one control group and two experimental groups (30 mg/kg/day BX-912 or JNK-IN-5A, n=5). […] The control group were received the same amount of vehicle solution only. After 7 days, rats were anaesthetized, and blood samples were collected from the abdominal aorta for biochemical and haematological analysis. The plasma was separated and stored at -80° C. for further analysis. Major organs such as heart, kidney, liver, muscle, adipose, intestine (duodenum, ileum, jejunum), pancreas, colon, and stomach were collected from all the animals for further analysis. Selected organs were fixed in 10% neutral buffered formalin for histopathological examination. Histopathological examination. […] Immunohistochemical examination. […] Slides were counter stained with hematoxylin.

[2] = test system: polychromatic erythrocytes; test: Micronucleus frequencies (MNPCEs) as genotoxicity endpoint; format: in vivo, Sprague Dawley male rats; settings: 30 mg/kg, seven days
Procedure: In addition to sampling for biochemical and haematological analysis, one drop of blood samples was obtained from the animals for evaluating micronucleus frequencies as genotoxicity endpoint at the end of the experiments. Three different smears of each rat were prepared using pre-coded and cold slides, then the slides air-dried at room temperature, and fixed in ethanol for 10 min, and stained with Giemsa. […] The incidence of MN-PCEs was determined by scoring a total of 3000 PCE per animal and results were expressed as % MN [12].

Question: Which “histological structures of major organs” value [1] does the source give for N#Cc1c(NC(=O)c2cccc3ccccc23)sc2c1CCCC2 [JNK-IN-5A, N-(3-cyano-4,5,6,7-tetrahydrobenzo[b]thiophen-2-yl)-1-naphthamide] here?
Answer: normal histological structures

Question: What about the “side effects on the rats” value [1] of the same molecule?
Answer: no side effects

Question: And the “8-OH-dG expression in liver tissues” value ([1]; IHC)?
Answer: negative

Question: What about the genotoxic potential [2] of the same molecule?
Answer: non-genotoxic

Question: And the “frequencies of MNPCEs compared to Ctrl animals” value ([2]; p>0.05)?
Answer: not statistically different
